Experiments:
PTPN2 (i.e., TC-PTP) = molecular target: T1, PTPN2 (i.e., TC-PTP) (Homo sapiens, UniProt P17706); assay: Phosphatase activity assay (DiFMUP substrate), PTPN2; format: biochemical; settings: compounds binned ≤1 uM or >1 uM
T1 sequence (P17706 1-415): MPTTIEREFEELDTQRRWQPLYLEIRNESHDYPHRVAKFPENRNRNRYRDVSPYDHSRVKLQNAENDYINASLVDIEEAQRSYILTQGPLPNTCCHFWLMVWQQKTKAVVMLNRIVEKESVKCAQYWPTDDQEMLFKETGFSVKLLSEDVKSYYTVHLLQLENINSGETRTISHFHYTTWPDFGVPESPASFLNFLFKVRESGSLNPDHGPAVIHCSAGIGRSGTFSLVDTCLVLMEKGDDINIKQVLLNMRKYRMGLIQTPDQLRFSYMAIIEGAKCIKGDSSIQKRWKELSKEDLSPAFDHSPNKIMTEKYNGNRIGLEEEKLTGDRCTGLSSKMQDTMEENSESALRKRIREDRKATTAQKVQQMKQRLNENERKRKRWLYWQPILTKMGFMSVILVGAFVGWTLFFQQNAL
Outline: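 First, serially diluted inhibitor is mixed about 2 minutes with enzyme in pH 7.5 HEPES/NaCl/EDTA/DTT/Tween-20 buffer. Next, DiFMUP is added at the enzyme's Km, approximately 45 μM for PTPN2. Finally, DiFMU appearance is read continuously at room temperature and rates are fitted for IC50.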

PTPN1 (i.e., PTP1B) = molecular target: T2, PTPN1 (i.e., PTP1B) (Homo sapiens, UniProt P18031); assay: Phosphatase activity assay (DiFMUP substrate), PTP1B; format: biochemical; settings: compounds binned ≤1 uM or >1 uM
T2 sequence (P18031 1-435): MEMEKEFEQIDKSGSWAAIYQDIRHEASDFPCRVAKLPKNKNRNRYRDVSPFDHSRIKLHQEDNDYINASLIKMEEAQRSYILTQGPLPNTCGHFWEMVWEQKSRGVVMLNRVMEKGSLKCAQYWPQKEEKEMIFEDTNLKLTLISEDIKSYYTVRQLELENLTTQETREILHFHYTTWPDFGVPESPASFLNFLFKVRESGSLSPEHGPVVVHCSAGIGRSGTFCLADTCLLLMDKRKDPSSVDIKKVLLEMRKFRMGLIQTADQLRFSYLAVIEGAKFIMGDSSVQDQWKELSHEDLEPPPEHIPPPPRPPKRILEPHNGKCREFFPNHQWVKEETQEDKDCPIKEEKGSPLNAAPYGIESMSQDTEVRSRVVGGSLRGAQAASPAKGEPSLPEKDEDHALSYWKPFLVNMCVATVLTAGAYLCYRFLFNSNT
Outline: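 Read-out is continuous fluorescence of DiFMU (360 nm excitation, 450 nm emission) over about 15-30 minutes, with DiFMUP substrate at the enzyme's independently determined Km (PTPN2 approx. 45 μM final). Buffer: 50 mM HEPES pH 7.5, 150 mM NaCl, 0.5 mM EDTA, 1 mM DTT, 0.001% Tween-20, room temperature; initial rates versus 10-point dilution fitted for IC50, at least duplicate.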

IC50 (PTPN2 (i.e., TC-PTP))	IC50 (PTPN1 (i.e., PTP1B))	SMILES
≤ 1000 nM	≤ 1000 nM	O=C1CN(c2c(O)ccc(-c3cc(N4CC(F)(F)C4)n[nH]3)c2F)S(=O)(=O)N1 [Compound 451, 5-(3-(3-(3,3-difluoroazetidin-1-yl)-1H-pyrazol-5-yl)-2-fluoro-6-hydroxyphenyl)-1,2,5-thiadiazolidin-3-one 1,1-dioxide]
≤ 1000 nM	≤ 1000 nM	Cn1cc(-c2ccc(O)c(N3CC(=O)NS3(=O)=O)c2F)nc1N [Compound 503, 5-(3-(2-amino-1-methyl-1H-imidazol-4-yl)-2-fluoro-6-hydroxyphenyl)-1,2,5-thiadiazolidin-3-one 1,1-dioxide]
≤ 1000 nM	≤ 1000 nM	CCn1nc(-c2ccc(O)c(N3CC(=O)NS3(=O)=O)c2F)cc1C1CC1(F)F (stereo not drawn) [Compound 494, 5-(3-(5-(2,2-difluorocyclopropyl)-1-ethyl-1H-pyrazol-3-yl)-2-fluoro-6-hydroxyphenyl)-1,2,5-thiadiazolidin-3-one 1,1-dioxide]
≤ 1000 nM	≤ 1000 nM	CC(C)CNCc1cc(-c2ccc(O)c(N3CC(=O)NS3(=O)=O)c2F)[nH]n1 [Compound 436, 5-(2-fluoro-6-hydroxy-3-(3-((isobutylamino)methyl)-1H-pyrazol-5-yl)phenyl)-1,2,5-thiadiazolidin-3-one 1,1-dioxide]
≤ 1000 nM	≤ 1000 nM	O=C1CN(c2c(O)ccc(-c3cnn(C4CCCOCC4)c3)c2F)S(=O)(=O)N1 (stereo not drawn) [Compound 456, 5-(2-fluoro-6-hydroxy-3-(1-(oxepan-4-yl)-1H-pyrazol-4-yl)phenyl)-1,2,5-thiadiazolidin-3-one 1,1-dioxide]
≤ 1000 nM	≤ 1000 nM	O=C1CN(c2c(O)ccc(-c3cc(C4CC4)n[nH]3)c2F)S(=O)(=O)N1 [Compound 421, 5-(3-(3-cyclopropyl-1H-pyrazol-5-yl)-2-fluoro-6-hydroxyphenyl)-1,2,5-thiadiazolidin-3-one 1,1-dioxide]
≤ 1000 nM	≤ 1000 nM	C[C@H]1C=C(c2ccc(O)c(N3CC(=O)NS3(=O)=O)c2F)CN1 [Compound 504, (S)-5-(2-fluoro-6-hydroxy-3-(5-methyl-2,5-dihydro-1H-pyrrol-3-yl)phenyl)-1,2,5-thiadiazolidin-3-one 1,1-dioxide]
≤ 1000 nM	≤ 1000 nM	O=C1CN(c2c(O)ccc(C3=CCN(S(=O)(=O)c4ccccc4)C3)c2F)S(=O)(=O)N1 [Compound 404, 5-(2-fluoro-6-hydroxy-3-(1-(phenylsulfonyl)-2,5-dihydro-1H-pyrrol-3-yl)phenyl)-1,2,5-thiadiazolidin-3-one 1,1-dioxide]
≤ 1000 nM	≤ 1000 nM	CCC1C=C(c2ccc(O)c(N3CC(=O)NS3(=O)=O)c2F)CN1 (stereo not drawn) [Compound 493, 5-(3-(5-ethyl-2,5-dihydro-1H-pyrrol-3-yl)-2-fluoro-6-hydroxyphenyl)-1,2,5-thiadiazolidin-3-one 1,1-dioxide]
≤ 1000 nM	≤ 1000 nM	O=C1CN(c2c(O)ccc(-c3cn(C4CC4)nc3F)c2F)S(=O)(=O)N1 [Compound 440, 5-(3-(1-cyclopropyl-3-fluoro-1H-pyrazol-4-yl)-2-fluoro-6-hydroxyphenyl)-1,2,5-thiadiazolidin-3-one 1,1-dioxide]
≤ 1000 nM	≤ 1000 nM	CC(C)CCC1C=C(c2ccc(O)c(N3CC(=O)NS3(=O)=O)c2F)CN1 (stereo not drawn) [Compound 541, 5-(2-fluoro-6-hydroxy-3-(5-isopentyl-2,5-dihydro-1H-pyrrol-3-yl)phenyl)-1,2,5-thiadiazolidin-3-one 1,1-dioxide]

The remaining lines, values behind:

SMILES	IC50 (PTPN2 (i.e., TC-PTP))	IC50 (PTPN1 (i.e., PTP1B))
O=C1CN(c2c(O)ccc(-c3cc(N4CCOCC4)n[nH]3)c2F)S(=O)(=O)N1 [Compound 286, 5-(2-fluoro-6-hydroxy-3-(3-morpholino-1H-pyrazol-5-yl)phenyl)-1,2,5-thiadiazolidin-3-one 1,1-dioxide]	≤ 1000 nM	≤ 1000 nM
O=C1CN(c2c(O)ccc(-c3cn(C4CCC(F)CC4)cn3)c2F)S(=O)(=O)N1 (stereo not drawn) [Compound 306, 5-(2-fluoro-3-(1-(4-fluorocyclohexyl)-1H-imidazol-4-yl)-6-hydroxyphenyl)-1,2,5-thiadiazolidin-3-one 1,1-dioxide]	≤ 1000 nM	≤ 1000 nM
Cn1cc(-c2ccc(O)c(N3CC(=O)NS3(=O)=O)c2F)c(F)n1 [Compound 110, 5-(2-fluoro-3-(3-fluoro-1-methyl-1H-pyrazol-4-yl)-6-hydroxyphenyl)-1,2,5-thiadiazolidin-3-one 1,1-dioxide]	≤ 1000 nM	≤ 1000 nM
O=C1CN(c2c(O)ccc(C3CNC(CO)C3)c2F)S(=O)(=O)N1 (stereo not drawn) [Compound 327, 5-(2-fluoro-6-hydroxy-3-(5-(hydroxymethyl)pyrrolidin-3-yl)phenyl)-1,2,5-thiadiazolidin-3-one 1,1-dioxide]	≤ 1000 nM	≤ 1000 nM
Cc1cc(-c2cnn(CCC(C)C)c2)cc(N2CC(=O)NS2(=O)=O)c1O [Compound 145, 5-(2-hydroxy-5-(1-isopentyl-1H-pyrazol-4-yl)-3-methylphenyl)-1,2,5-thiadiazolidin-3-one 1,1-dioxide]	> 1000 nM	> 1000 nM
N#C[C@H]1CC[C@H](n2cnc(-c3ccc(O)c(N4CC(=O)NS4(=O)=O)c3F)c2)CC1 [Compound 250, (1r,4r)-4-(4-(3-(1,1-dioxido-4-oxo-1,2,5-thiadiazolidin-2-yl)-2-fluoro-4-hydroxyphenyl)-1H-imidazol-1-yl)cyclohexane-1-carbonitrile]	> 1000 nM	≤ 1000 nM
Cn1cc(-c2ccc(O)c(N3CC(=O)NS3(=O)=O)c2F)c(C(F)(F)F)n1 [Compound 192, 5-(2-fluoro-6-hydroxy-3-(1-methyl-3-(trifluoromethyl)-1H-pyrazol-4-yl)phenyl)-1,2,5-thiadiazolidin-3-one 1,1-dioxide]	> 1000 nM	≤ 1000 nM
CC1(N)CCN(c2cc(-c3ccc(O)c(N4CC(=O)NS4(=O)=O)c3F)[nH]n2)C1 (stereo not drawn) [Compound 279, 5-(3-(3-(3-amino-3-methylpyrrolidin-1-yl)-1H-pyrazol-5-yl)-2-fluoro-6-hydroxyphenyl)-1,2,5-thiadiazolidin-3-one 1,1-dioxide]	≤ 1000 nM	≤ 1000 nM
CC(C)CCNC1CCCN(c2cc(O)c(N3CC(=O)NS3(=O)=O)c(F)c2)C1 (stereo not drawn) [Compound 104, 5-(2-fluoro-6-hydroxy-4-(3-(isopentylamino)piperidin-1-yl)phenyl)-1,2,5-thiadiazolidin-3-one 1,1-dioxide]	≤ 1000 nM	≤ 1000 nM
O=C1CN(c2c(O)ccc(-c3cnn4ccccc34)c2F)S(=O)(=O)N1 [Compound 195, 5-(2-fluoro-6-hydroxy-3-(pyrazolo[1,5-a]pyridin-3-yl)phenyl)-1,2,5-thiadiazolidin-3-one 1,1-dioxide]	≤ 1000 nM	≤ 1000 nM
O=C1CN(c2c(O)ccc(-c3ccc4ocnc4c3)c2F)S(=O)(=O)N1 [Compound 170, 5-(3-(benzo[d]oxazol-5-yl)-2-fluoro-6-hydroxyphenyl)-1,2,5-thiadiazolidin-3-one 1,1-dioxide]	≤ 1000 nM	≤ 1000 nM
O=C1CN(c2c(O)ccc(-c3cnn(Cc4ccc(Cl)cc4)c3)c2F)S(=O)(=O)N1 [Compound 189, 5-(3-(1-(4-chlorobenzyl)-1H-pyrazol-4-yl)-2-fluoro-6-hydroxyphenyl)-1,2,5-thiadiazolidin-3-one 1,1-dioxide]	≤ 1000 nM	≤ 1000 nM
Cc1ccc(-c2ccc(O)c(N3CC(=O)NS3(=O)=O)c2F)cn1 [Compound 180, 5-(2-fluoro-6-hydroxy-3-(6-methylpyridin-3-yl)phenyl)-1,2,5-thiadiazolidin-3-one 1,1-dioxide]	≤ 1000 nM	≤ 1000 nM
CC(C)CCn1cnc(-c2ccc(O)c(N3CC(=O)NS3(=O)=O)c2F)c1 [Compound 216, 5-(2-fluoro-6-hydroxy-3-(1-isopentyl-1H-imidazol-4-yl)phenyl)-1,2,5-thiadiazolidin-3-one 1,1-dioxide]	≤ 1000 nM	≤ 1000 nM
O=C1CN(c2c(O)ccc(-c3cn(C4CCCC4)cn3)c2F)S(=O)(=O)N1 [Compound 302, 5-(3-(1-cyclopentyl-1H-imidazol-4-yl)-2-fluoro-6-hydroxyphenyl)-1,2,5-thiadiazolidin-3-one 1,1-dioxide]	≤ 1000 nM	≤ 1000 nM
CC(C)CCn1cc(-c2cc(F)c(O)c(N3CC(=O)NS3(=O)=O)c2)cn1 [Compound 153, 5-(3-fluoro-2-hydroxy-5-(1-isopentyl-1H-pyrazol-4-yl)phenyl)-1,2,5-thiadiazolidin-3-one 1,1-dioxide]	> 1000 nM	≤ 1000 nM

Reference: patent publication US20240398828A1, “HETERO-ATOM CONTAINING COMPOUNDS AND USES THEREOF” (Kumquat Biosciences Inc., priority 2021, published 2024)
